# Source: PubChem BioAssay AID1996
# Conditions: buffer; pH 7.4; 200.0 µM
row,Compound,solubility kinetic [µg/mL]
1,CSCCC(NC(=O)c1ccccc1)C(=O)N1CCN(C(=O)c2ccccc2)CC1 (centres undefined),> 63.8
2,Cc1cc(NC(=O)NC(C)(C(F)(F)F)C(F)(F)F)no1,> 45.8
3,COn1c(-c2ccccc2)c(C=O)c2ccccc21,2.4
4,Cc1ccc(NC(=O)c2ccc(CSc3ccccn3)cc2)c(O)c1,1
5,Oc1ccc(Cl)cc1C=Nc1ccc(Br)cc1,21.4
6,CC(C)=CCN1CCN(Cc2cccc3c2OCO3)CC1CCO (centres undefined),36.5
7,Cl.O=[N+]([O-])c1ccccc1OCCCN1CCc2ccccc2C1,> 52.3
8,O=C(NC1CCCCC1)c1cccnc1Sc1ccccc1,11.2
9,COc1ccc(-c2cc(CS(=O)(=O)c3ccccc3)on2)cc1,0.7
10,COc1ccc(-n2c(CNCCc3ccc(C)cc3)nc3ccccc3c2=O)cc1,45.2
11,COc1ccc(CCNC(=O)c2cnc(C)cn2)cc1,> 40.7
12,CCc1c(O)nc(SCC(=O)N(CC)CC)[nH]c1=O,> 42.8
13,COc1ccc(CCNCC(=O)Nc2ccc(OC(F)F)cc2)cc1,34.4
14,c1cc2c3c(cccc3c1)NC(c1ccc3c(c1)OCO3)N2,9.5
15,COc1ccc(NC(=S)N2CCCCCC2)cc1OC,42.4
16,O=c1c2cc(NC(=S)N3CCCC3)ccc2nc2n1CCCCC2,6.1
17,CCOC(=O)C1=C(C)NC(=O)CC1c1cc2c(cc1[N+](=O)[O-])OCO2 (centres undefined),3.3
18,Cc1ccc(C(=O)Nc2nc(-c3ccc(F)cc3)cs2)o1,4.4
19,COc1ccc(C(C)NC(=O)C2CCCC2)cc1 (centres undefined),> 37.1
20,COc1ccc2cc(C(N)=O)c(=Nc3ccc(C)cc3)oc2c1,< 0.3
21,CC(C)c1ccc(S(=O)(=O)NCc2ccc3c(c2)OCO3)cc1,1.9

row,Compound,solubility kinetic [µg/mL]
1,Cc1ccc(Nc2nc(=O)c3cccnc3s2)c(Br)c1,2.4
2,CN1CC(C(=O)c2ccc(F)cc2)C(c2c(F)cccc2Cl)C1 (centres undefined),40.9
3,Cc1ccc(NC(=O)CCn2c(=S)oc3ccccc32)cc1F,< 0.4
4,O=C(NNC(=O)c1ccncc1)Nc1cccc(C(F)(F)F)c1,> 48.6
5,Clc1cnc2nc(SC/C=C/c3ccccc3)[nH]c2c1,< 0.2
6,CS(=O)(=O)c1ccc(NCC2CCCO2)c([N+](=O)[O-])c1 (centres undefined),> 45
7,COc1ccc2oc(C(=O)Nc3nc(C)cs3)c(C)c2c1,4.8
8,CC(C)=CC(=O)Nc1ccc(S(=O)(=O)Nc2onc(C)c2C)cc1,> 52.4
9,Cc1ccc(NC(=O)Nc2cccc(F)c2)nc1,1.3
10,COc1ccc(S(=O)(=O)N2CCc3ccccc32)cc1C(=O)Nc1ccc(NC(C)=O)cc1,7.2
11,Cc1ccc(NC(=O)c2ccc([N+](=O)[O-])s2)cc1S(=O)(=O)N1CCOCC1,3.1
12,Cc1cc(SCc2ccc(F)cc2)nc(=O)[nH]1,22.1
13,Cc1ccc2c(c1)c1c(n2CC(O)CN2CCCCC2C)CCCC1 (centres undefined),29.8
14,O=C(COC(=O)c1ccco1)NCCc1ccc(Cl)cc1,> 46.2
15,CN(C)C(CNC(=O)c1ccc(NC(=O)CC#N)cc1)c1ccccc1 (centres undefined),> 52.6
16,O=C(CSc1ncnc2ccccc12)NCC(=O)c1ccccc1,7.1
17,Cc1c(C(=O)N/N=C/c2ccoc2)cccc1[N+](=O)[O-],> 41
18,CC1(c2ccccc2)CC(C)(C)N(C(N)=O)c2ccccc21 (centres undefined),40.9
19,CC(C)(C)/C(COc1ccccc1[N+](=O)[O-])=N/O,20.6
20,Cc1cc2[nH]c3ccccc3c2cn1,> 27.3

# The next lines start with the values.
row,solubility kinetic [µg/mL],Compound
1,> 43.6,O=C(O)[C@H](Cc1ccccc1)NC(=O)N1CCCCCC1
2,> 50.5,O=C(OCC(=O)c1ccccc1)C1=NN(c2ccccc2)C(=O)CC1
3,> 45.8,COc1cccc(NC(=O)COC(=O)CCC2CCCC2)c1
4,> 57.1,CCC1CCCCN1C(=O)c1cc(S(=O)(=O)N2CCOCC2)ccc1C (centres undefined)
5,> 47,O=C(Cn1cc([N+](=O)[O-])ccc1=O)N1CCc2ccccc2C1
6,> 51.5,COC(c1ccccc1)c1nnc(CCC(=O)NC2CCCCC2)o1 (centres undefined)
7,33.9,Cc1c(C(=O)NC2CCCC2)oc2ccccc12
8,3.9,CCOC(=O)C1CCN(S(=O)(=O)c2ccc(-c3ccccn3)s2)CC1
9,34.1,O=C(COC(=O)c1ccccc1Cl)NC1CCCCCCC1
10,> 45.4,CCOC(=O)CSc1nc2ccccc2n2c(C)nnc12
11,> 45.8,COc1ccccc1CCC(=O)OCC(=O)NC1CCCC1
12,> 45.5,CCN1CCC(N2CCN(c3ccccc3OC)CC2)CC1
13,> 56.5,Cc1onc(-c2ccccc2Cl)c1C(=O)OCC(=O)N1CCC(C)CC1
14,37.4,COC1c2ccccc2C(=O)N1Cc1ccc(F)cc1 (centres undefined)
15,> 47.5,Cc1cc(C(=O)N2CCCC(Nc3ccc(F)cc3)C2)c(C)o1 (centres undefined)
16,> 38.9,Cc1cc(C(=O)Nc2ccc(C(=O)O)cc2)c(C)o1
17,> 66.1,CC(C)Cn1c(SCC(=O)O)nnc1-c1cccc(S(=O)(=O)N2CCOCC2)c1
18,38.9,COCC(=O)OCc1cc2cccc(C)c2[nH]c1=O
